According to the supplement of paper PMC11061612:

Experiments:
Carboplatin = compound: C1CC(C1)(C(=O)[O-])C(=O)[O-].N.N.[Pt+2] [Carboplatin]; settings: max 10 µM
In short: (§1)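 Viability was measured with CellTiter-Glo 2.0 luminescence after 72 hours of dosing at a final DMSO of typically 0.2%, and scaled between blank-well and DMSO-well means. Beforehand, cancer cell lines sat 24 hours at 37°C and 5% CO2 in 1536-well plates in 7.5 μl DMEM/F12 or RPMI with 10% FBS. A non-linear mixed effects model fitted two-parameter logistic curves to the dose responses. The single-agent IC50 comes from these fits.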

AZD5363 = compound: C1CN(CCC1(C(=O)N[C@@H](CCO)C2=CC=C(C=C2)Cl)N)C3=NC=NC4=C3C=CN4 [AZD5363]; settings: max 10 µM
In short: as §1

AZD1775 = compound: C=CCn1c(=O)c2cnc(Nc3ccc(N4CCN(C)CC4)cc3)nc2n1-c1cccc(C(C)(C)O)n1 [AZD1775]; settings: max 3 µM
In short: as §1

Trametinib = compound: CC(=O)Nc1cccc(-n2c(=O)n(C3CC3)c(=O)c3c(Nc4ccc(I)cc4F)n(C)c(=O)c(C)c32)c1 [Trametinib]; settings: max 1 µM
In short: as §1

Paclitaxel = compound: CC(=O)O[C@H]1C(=O)[C@@]2(C)[C@H]([C@H](OC(=O)c3ccccc3)[C@]3(O)C[C@H](OC(=O)[C@H](O)[C@@H](NC(=O)c4ccccc4)c4ccccc4)C(C)=C1C3(C)C)[C@]1(OC(C)=O)CO[C@@H]1C[C@@H]2O [Paclitaxel]; settings: max 3 µM
In short: as §1

Palbociclib = compound: CC(=O)c1c(C)c2cnc(Nc3ccc(N4CCNCC4)cn3)nc2n(C2CCCC2)c1=O [Palbociclib]; settings: max 10 µM
In short: as §1

AZD1390 = compound: CC(C)n1c(=O)n(C)c2cnc3cc(F)c(-c4ccc(OCCCN5CCCCC5)nc4)cc3c21 [AZD1390]; settings: max 0.3 µM
In short: as §1

Venetoclax = compound: CC1(C)CCC(CN2CCN(c3ccc(C(=O)NS(=O)(=O)c4ccc(NCC5CCOCC5)c([N+](=O)[O-])c4)c(Oc4cnc5[nH]ccc5c4)c3)CC2)=C(c2ccc(Cl)cc2)C1 [Venetoclax]; settings: max 1 µM
In short: as §1

Dasatinib = compound: CC1=C(C(=CC=C1)Cl)NC(=O)C2=CN=C(S2)NC3=CC(=NC(=N3)C)N4CCN(CC4)CCO [Dasatinib]; settings: max 2 µM
In short: as §1

SG3199 = compound: CC1=CN2[C@@H](C1)C=NC3=CC(=C(C=C3C2=O)OC)OCCCCCOC4=C(C=C5C(=C4)N=C[C@@H]6CC(=CN6C5=O)C)OC [SG3199]; settings: max 0.001 µM
In short: as §1

AZD2811 = compound: CCN(CCO)CCCOc1ccc2c(Nc3cc(CC(=O)Nc4cccc(F)c4)[nH]n3)ncnc2c1 [AZD2811]; settings: max 1 µM
In short: as §1

SN-38 = compound: CCc1c2c(nc3ccc(O)cc13)-c1cc3c(c(=O)n1C2)COC(=O)[C@]3(O)CC [SN-38]; settings: max 0.3 µM
In short: as §1

AZD0156 = compound: CN(C)CCCOc1ccc(-c2ccc3ncc4c(c3c2)n(C2CCOCC2)c(=O)n4C)cn1 [AZD0156]; settings: max 3 µM
In short: as §1

AZD4320 = compound: CN(CC[C@H](CSC1=CC=CC=C1)NC2=C(C=C(C=C2)S(=O)(=O)NC(=O)C3=CC=C(C=C3)N4CCC(CC4)[C@H](C5=CC=CC=C5C6=CC=C(C=C6)Cl)O)S(=O)(=O)C(F)(F)F)CCO [AZD4320]; settings: max 1 µM
In short: as §1

Alisertib = compound: COc1cc(Nc2ncc3c(n2)-c2ccc(Cl)cc2C(c2c(F)cccc2OC)=NC3)ccc1C(=O)O [Alisertib]; settings: max 10 µM
In short: as §1

Etoposide = compound: COc1cc([C@@H]2c3cc4c(cc3[C@@H](O[C@@H]3O[C@@H]5CO[C@@H](C)O[C@H]5[C@H](O)[C@H]3O)[C@H]3COC(=O)[C@H]23)OCO4)cc(OC)c1O [Etoposide]; settings: max 10 µM
In short: as §1

Gefitinib = compound: COc1cc2ncnc(Nc3ccc(F)c(Cl)c3)c2cc1OCCCN1CCOCC1 [Gefitinib]; settings: max 10 µM
In short: as §1

Prexasertib = compound: COc1cccc(OCCCN)c1-c1cc(Nc2cnc(C#N)cn2)n[nH]1 [Prexasertib]; settings: max 1 µM
In short: as §1

Doxorubicin = compound: COc1cccc2c1C(=O)c1c(O)c3c(c(O)c1C2=O)C[C@@](O)(C(=O)CO)C[C@@H]3O[C@H]1C[C@H](N)[C@H](O)[C@H](C)O1 [Doxorubicin]; settings: max 1 µM
In short: as §1

AZD5153 = compound: COc1nnc2ccc(N3CCC(c4ccc(OCCN5CCN(C)C(=O)[C@H]5C)cc4)CC3)nn12 [AZD5153]; settings: max 1 µM
In short: as §1

Lapatinib = compound: CS(=O)(=O)CCNCc1ccc(-c2ccc3ncnc(Nc4ccc(OCc5cccc(F)c5)c(Cl)c4)c3c2)o1 [Lapatinib]; settings: max 10 µM
In short: as §1

AZD8186 = compound: C[C@@H](Nc1cc(F)cc(F)c1)c1cc(C(=O)N(C)C)cc2c(=O)cc(N3CCOCC3)oc12 [AZD8186]
In short: as §1

Crizotinib = compound: C[C@@H](Oc1cc(-c2cnn(C3CCNCC3)c2)cnc1N)c1c(Cl)ccc(F)c1Cl [Crizotinib]; settings: max 10 µM
In short: as §1

Savolitinib = compound: C[C@@H](c1ccc2nccn2c1)n1nnc2ncc(-c3cnn(C)c3)nc21 [Savolitinib]; settings: max 1 µM
In short: as §1

AZD6738 = compound: C[C@@H]1COCCN1C2=NC(=NC(=C2)C3(CC3)[S@](=N)(=O)C)C4=C5C=CNC5=NC=C4 [AZD6738]; settings: max 10 µM
In short: as §1

AZD5991 = compound: Cc1c2c(nn1C)CSCc1cc(n(C)n1)CSc1cc(c3ccccc3c1)OCCCc1c(C(=O)O)n(C)c3c-2c(Cl)ccc13 [AZD5991]; settings: max 1 µM
In short: as §1

AZD7648 = compound: Cc1cc2ncnn2cc1Nc1ncc2c(n1)n(C1CCOCC1)c(=O)n2C [AZD7648]; settings: max 10 µM
In short: as §1

Taselisib = compound: Cc1nc(-c2cn3c(n2)-c2ccc(-c4cnn(C(C)(C)C(N)=O)c4)cc2OCC3)n(C(C)C)n1 [Taselisib]; settings: max 10 µM
In short: as §1

Selumetinib = compound: Cn1cnc2c(F)c(Nc3ccc(Br)cc3Cl)c(C(=O)NOCCO)cc21 [Selumetinib]; settings: max 10 µM
In short: as §1

SRA737 = compound: N#Cc1cnc(Nc2cc(NC[C@H]3CNCCO3)c(C(F)(F)F)cn2)cn1 [SRA737]; settings: max 10 µM
In short: as §1

MK-2206 = compound: NC1(c2ccc(-c3nc4ccn5c(=O)[nH]nc5c4cc3-c3ccccc3)cc2)CCC1 [MK-2206]; settings: max 10 µM
In short: as §1

[1] = compound: O=C(Nc1ccc2[nH]nc(-c3ccncc3)c2c1)[C@@H]1CCN(CC(=O)N2CCN(c3ccc(-c4ncccn4)cc3)CC2)C1; settings: max 5 µM
In short: as §1

Olaparib = compound: O=C(c1cc(Cc2n[nH]c(=O)c3ccccc23)ccc1F)N1CCN(C(=O)C2CC2)CC1 [Olaparib]; settings: max 10 µM
In short: as §1

5-Fluorouracil = compound: O=c1[nH]cc(F)c(=O)[nH]1 [5-Fluorouracil]; settings: max 20 µM
In short: as §1

Gemcitabine = compound: Nc1ccn([C@@H]2O[C@H](CO)[C@@H](O)C2(F)F)c(=O)n1 [Gemcitabine]; settings: max 0.3 µM
In short: as §1

Capivasertib = compound: C1CN(CCC1(C(=O)N[C@@H](CCO)C2=CC=C(C=C2)Cl)N)C3=NC=NC4=C3C=CN4 [Capivasertib]; settings: max 10 µM
In short: as §1

Cell Line	IC50, cell viability 72 h (Carboplatin) [nM]	IC50, cell viability 72 h (AZD5363) [nM]	IC50, cell viability 72 h (AZD1775) [nM]	IC50, cell viability 72 h (Trametinib) [nM]	IC50, cell viability 72 h (Paclitaxel) [nM]	IC50, cell viability 72 h (Palbociclib) [nM]	IC50, cell viability 72 h (AZD1390) [nM]	IC50, cell viability 72 h (Venetoclax) [nM]	IC50, cell viability 72 h (Dasatinib) [nM]	IC50, cell viability 72 h (SG3199) [nM]	IC50, cell viability 72 h (AZD2811) [nM]	IC50, cell viability 72 h (SN-38) [nM]	IC50, cell viability 72 h (AZD0156) [nM]	IC50, cell viability 72 h (AZD4320) [nM]	IC50, cell viability 72 h (Alisertib) [nM]	IC50, cell viability 72 h (Etoposide) [nM]	IC50, cell viability 72 h (Gefitinib) [nM]	IC50, cell viability 72 h (Prexasertib) [nM]	IC50, cell viability 72 h (Doxorubicin) [nM]	IC50, cell viability 72 h (AZD5153) [nM]	IC50, cell viability 72 h (Lapatinib) [nM]	IC50, cell viability 72 h (AZD8186; max 10 µM) [nM]	IC50, cell viability 72 h (Crizotinib) [nM]	IC50, cell viability 72 h (Savolitinib) [nM]	IC50, cell viability 72 h (AZD6738) [nM]	IC50, cell viability 72 h (AZD5991) [nM]	IC50, cell viability 72 h (AZD7648) [nM]	IC50, cell viability 72 h (Taselisib) [nM]	IC50, cell viability 72 h (Selumetinib) [nM]	IC50, cell viability 72 h (SRA737) [nM]	IC50, cell viability 72 h (MK-2206) [nM]	IC50, cell viability 72 h [1] [nM]	IC50, cell viability 72 h (Olaparib) [nM]	IC50, cell viability 72 h (5-Fluorouracil) [nM]	IC50, cell viability 72 h (Gemcitabine) [nM]	IC50, cell viability 72 h (Capivasertib) [nM]	IC50, cell viability 72 h (AZD8186; max 3 µM) [nM]
KP-3 (Pancreatic Carcinoma)	> 10000	> 10000	> 3000	> 1000	> 3000	> 10000	> 300	> 1000	> 2000	> 1	> 1000	> 300	> 3000	> 1000	> 10000	> 10000	> 10000	> 1000	> 1000	> 1000	> 10000	> 10000	> 10000	> 1000	> 10000	> 1000	> 10000	> 10000	> 10000	> 10000	> 10000	> 5000	> 10000	> 20000	–	–	–
KU812 (Chronic Myelogenous Leukemia)	> 10000	> 10000	298	10.5	17.6	4050	> 300	> 1000	< 2	> 1	471	37.4	> 3000	267	701	9690	> 10000	20.5	567	36.6	> 10000	> 10000	260	> 1000	2150	235	> 10000	> 10000	260	9860	4070	160	> 10000	> 20000	27.1	–	–
KY821 (Acute Myeloid Leukemia)	–	–	212	5.35	–	610	> 300	9.8	> 2000	> 1	> 1000	8.99	> 3000	4.53	28.6	–	> 10000	8.46	272	22.1	> 10000	–	4630	> 1000	3070	13.2	> 10000	90.7	623	–	> 10000	–	> 10000	–	–	> 10000	2700
